Measurements from ChEMBL document CHEMBL1671720, “Optimized Nile Red efflux assay of AcrAB-TolC multidrug efflux system shows competition between substrates” (Antimicrob Agents Chemother, 2010).
Activity calls are given as the source filed them. No cut-off for these calls is given here. Residues, ends and D or L forms follow the SMILES beside them. *: point of attachment. βNA = c1ccc2cc(N*)ccc2c1

How the values were obtained:
Escherichia coli K-12 [1] = test: Inhibition of acrAB AcrAB-TolC in Escherichia coli K-12 3-AG100 overexpressing acrAB AcrAB-TolC assessed as [3H]TMG accumulation at 800 uM by scintillation counter method
Escherichia coli K-12 [2] = test: Inhibition of acrAB AcrAB-TolC-mediated Nile Red efflux in marR mutant containing Escherichia coli K-12 3-AG102 overexpressing acrAB AcrAB-TolC assessed as time needed for 50% efflux after energization with 50 mM glucose at 200 uM by spectrofluorometric assay
Escherichia coli K-12 [3] = test: Inhibition of acrAB AcrAB-TolC-mediated Nile Red efflux in marR mutant containing Escherichia coli K-12 3-AG102 overexpressing acrAB AcrAB-TolC assessed as time needed for 50% efflux after energization with 50 mM glucose at 1000 uM by spectrofluorometric assay
Escherichia coli K-12 [4] = test: Inhibition of acrAB AcrAB-TolC in Escherichia coli K-12 3-AG100 overexpressing acrAB AcrAB-TolC assessed as [3H]TMG accumulation at 200 uM by scintillation counter method
Escherichia coli K-12 [5] = test: Inhibition of acrAB AcrAB-TolC in Escherichia coli K-12 3-AG100 overexpressing acrAB AcrAB-TolC assessed as [3H]TMG accumulation at 100 uM by scintillation counter method
Escherichia coli K-12 [6] = test: Inhibition of acrAB AcrAB-TolC-mediated Nile Red efflux in Escherichia coli K-12 3-AG100 overexpressing acrAB AcrAB-TolC assessed as time needed for 50% efflux after energization with 50 mM glucose at 100 uM by spectrofluorometric assay
Escherichia coli K-12 [7] = test: Inhibition of acrAB AcrAB-TolC-mediated Nile Red efflux in Escherichia coli K-12 3-AG100 overexpressing acrAB AcrAB-TolC assessed as time needed for 50% efflux after energization with 50 mM glucose by spectrofluorometric assay
Escherichia coli K-12 [8] = test: Inhibition of acrAB AcrAB-TolC-mediated Nile Red efflux in Escherichia coli K-12 3-AG100 overexpressing acrAB AcrAB-TolC assessed as time needed for 50% efflux after energization with 50 mM glucose at 800 uM by spectrofluorometric assay
Escherichia coli K-12 [9] = test: Inhibition of acrAB AcrAB-TolC-mediated Nile Red efflux in Escherichia coli K-12 3-AG100 overexpressing acrAB AcrAB-TolC assessed as time needed for 50% efflux after energization with 50 mM glucose upto 2 mM by spectrofluorometric assay

SMILES	inhibition (Escherichia coli K-12 [1]) [%]	TIME (Escherichia coli K-12 [2]) [h]	TIME (Escherichia coli K-12 [3]) [h]	other results
C[C@H]1c2cccc(O)c2C(=O)C2=C(O)[C@]3(O)C(=O)C(C(N)=O)=C(O)[C@@H](N(C)C)[C@@H]3[C@@H](O)[C@@H]21	44	0.0472	> 0.0556	
N#CC(C#N)=NNc1cccc(Cl)c1				inhibition (Escherichia coli K-12 [4]): 4.5%
CN(C)c1ccc(O)c2c1C[C@H]1C[C@H]3[C@H](N(C)C)C(O)=C(C(N)=O)C(=O)[C@@]3(O)C(O)=C1C2=O		> 0.0556	> 0.0556	inhibition (Escherichia coli K-12 [4]): 45%
COc1cccc2c1C(=O)c1c(O)c3c(c(O)c1C2=O)C[C@@](O)(C(=O)CO)C[C@@H]3O[C@H]1C[C@H](N)[C@H](O)[C@H](C)O1		> 0.0556	> 0.0556	inhibition (Escherichia coli K-12 [5]): 78%
CN(C)[C@@H]1C(O)=C(C(N)=O)C(=O)[C@@]2(O)C(O)=C3C(=O)c4c(O)cccc4[C@@](C)(O)[C@H]3C[C@@H]12	27	0.025	> 0.0556	
N=C(N)NCCC[C@H](NC(=O)[C@@H](N)Cc1ccccc1)C(=O)Nc1ccc2ccccc2c1 (H-Phe-Arg-βNA)				inhibition (Escherichia coli K-12 [6]): Active; inhibition (Escherichia coli K-12 [5]): 60%; inhibition (Escherichia coli K-12 [7]): Dose-dependent effect
c1ccc2c(CN3CCNCC3)cccc2c1	53	0.0278	> 0.0556	inhibition (Escherichia coli K-12 [8]): Active; inhibition (Escherichia coli K-12 [7]): Dose-dependent effect
CC[C@H]1OC(=O)[C@H](C)[C@@H](O[C@H]2C[C@@](C)(OC)[C@@H](O)[C@H](C)O2)[C@H](C)[C@@H](O[C@@H]2O[C@H](C)C[C@H](N(C)C)[C@H]2O)[C@](C)(O)C[C@@H](C)C(=O)[C@H](C)[C@@H](O)[C@]1(C)O				inhibition (Escherichia coli K-12 [9]): inactive
CN(C)[C@@H]1C(O)=C(C(N)=O)C(=O)[C@@]2(O)C(O)=C3C(=O)c4c(O)ccc(Cl)c4[C@@](C)(O)[C@H]3C[C@@H]12		0.0556	> 0.0556	inhibition (Escherichia coli K-12 [4]): 14%
CC(=O)NC[C@H]1CN(c2ccc(N3CCOCC3)c(F)c2)C(=O)O1				inhibition (Escherichia coli K-12 [9]): inactive
c1ccc([P+](c2ccccc2)(c2ccccc2)c2ccccc2)cc1	97	0.0292	> 0.0556	
